The supplement of paper PMC13380429

Tests used:
Conditions in all cases: 72 h
Vero E6 [1] = test: cell viability relative to DMSO; higher = less toxic
HepG2 [2] = test: as above
Caco-2 [3] = test: as above
U2OS [4] = test: as above
Calu-3 [5] = test: as above
Vero E6 [6] = test: drug sensitivity score (DSS) for viability; higher = more toxic; extreme values may be limits of the assay
HepG2 [7] = test: as above
Caco-2 [8] = test: as above
U2OS [9] = test: as above
Calu-3 [10] = test: as above
Vero E6 [11] = test: relative viability EC50 (midpoint between 100% and the lowest measured viability); higher = less toxic
HepG2 [12] = test: as above
Caco-2 [13] = test: as above
U2OS [14] = test: as above
Calu-3 [15] = test: as above

| SMILES | cell viability (Vero E6 [1]; 1 nM) | cell viability (Vero E6 [1]; 10 nM) | cell viability (Vero E6 [1]; 100 nM) | cell viability (Vero E6 [1]; 1000 nM) | cell viability (Vero E6 [1]; 10000 nM) | cell viability (HepG2 [2]; 1 nM) | cell viability (HepG2 [2]; 10 nM) | cell viability (HepG2 [2]; 100 nM) | cell viability (HepG2 [2]; 1000 nM) | cell viability (HepG2 [2]; 10000 nM) | cell viability (Caco-2 [3]; 1 nM) | cell viability (Caco-2 [3]; 10 nM) | cell viability (Caco-2 [3]; 100 nM) | cell viability (Caco-2 [3]; 1000 nM) | cell viability (Caco-2 [3]; 10000 nM) | cell viability (U2OS [4]; 1 nM) | cell viability (U2OS [4]; 10 nM) | cell viability (U2OS [4]; 100 nM) | cell viability (U2OS [4]; 1000 nM) | cell viability (U2OS [4]; 10000 nM) | cell viability (Calu-3 [5]; 1 nM) | cell viability (Calu-3 [5]; 10 nM) | cell viability (Calu-3 [5]; 100 nM) | cell viability (Calu-3 [5]; 1000 nM) | cell viability (Calu-3 [5]; 10000 nM) | drug sensitivity score (Vero E6 [6]) | drug sensitivity score (HepG2 [7]) | drug sensitivity score (Caco-2 [8]) | drug sensitivity score (U2OS [9]) | drug sensitivity score (Calu-3 [10]) | relative viability EC50 (Vero E6 [11]) | relative viability EC50 (HepG2 [12]) | relative viability EC50 (Caco-2 [13]) | relative viability EC50 (U2OS [14]) | relative viability EC50 (Calu-3 [15]) |
| --- | --- | --- | --- | --- | --- | --- | --- | --- | --- | --- | --- | --- | --- | --- | --- | --- | --- | --- | --- | --- | --- | --- | --- | --- | --- | --- | --- | --- | --- | --- | --- | --- | --- | --- | --- |
| CCc1oc2ccccc2c1C(=O)c1cc(Br)c(O)c(Br)c1 [benzbromarone] | 103% | 108% | 104% | 105% | 99.8% | 109% | 101% | 96.4% | 102% | 102% | 101% | 93.5% | 105% | 83.1% | 89.9% | 99.9% | 94.8% | 102% | 102% | 105% | 104% | 90.5% | 105% | 99.4% | 107% | 0 | 0 | 1.7 | 0 | 0 | > 10 µM | > 10 µM | > 10 µM | > 10 µM | > 10 µM |
| NC(N)=Nc1nc(CSCC/C(N)=N/S(N)(=O)=O)cs1 [famotidine] | 113% | 106% | 89.2% | 101% | 94.3% | 106% | 102% | 90.4% | 97.5% | 93.4% | 107% | 106% | 108% | 97.2% | 109% | 94.3% | 95.4% | 99.6% | 95% | 99.4% | 107% | 91.5% | 113% | 105% | 97.7% | 0 | 0 | 0 | 0 | 0 | > 10 µM | > 10 µM | > 10 µM | > 10 µM | > 10 µM |
| C#Cc1cnc2nc(O)n(C(CC)CC)c2n1 [tirasemtiv] | 94.8% | 101% | 93.4% | 96.9% | 106% | 102% | 113% | 99.4% | 115% | 98.5% | 90.7% | 92.8% | 103% | 107% | 103% | 103% | 100% | 101% | 98.6% | 98.5% | 95.8% | 98.7% | 103% | 95.7% | 106% | 0 | 0 | 0 | 0 | 0 | > 10 µM | > 10 µM | > 10 µM | > 10 µM | > 10 µM |
| O=C1CC2(CCCC2)CC(=O)N1CCCCNC[C@H]1COc2ccccc2O1 (racemic) | 103% | 101% | 101% | 97% | 98.6% | 99% | 112% | 106% | 101% | 110% | 97.8% | 98.2% | 93.8% | 98.3% | 86% | 104% | 102% | 101% | 104% | 97.8% | 96.9% | 103% | 96.9% | 94.2% | 85.3% | 0 | 0 | 0.3 | 0 | 0.3 | > 10 µM | > 10 µM | > 10 µM | > 10 µM | > 10 µM |
| C[C@H](Cc1cc2c(c(C(N)=O)c1)N(CCCO)CC2)NCCOc1ccccc1OCC(F)(F)F [silodosin] | 93.9% | 102% | 97.1% | 101% | 108% | 95% | 97.7% | 103% | 102% | 99.9% | 91.6% | 93.1% | 106% | 92% | 88.7% | 101% | 93.5% | 98.9% | 95.6% | 97.6% | 96% | 87.2% | 97% | 101% | 93.6% | 0 | 0 | 0 | 0 | 0 | > 10 µM | > 10 µM | > 10 µM | > 10 µM | > 10 µM |
| O=C(O)c1ccccc1C(=O)Nc1ccc(S(=O)(=O)Nc2nccs2)cc1 [phthalylsulfathiazole] | 92.2% | 98.9% | 94.9% | 94.5% | 108% | 87.5% | 107% | 115% | 111% | 112% | 106% | 93.9% | 94.1% | 102% | 93.7% | 97.9% | 98% | 102% | 96.8% | 99.7% | 105% | 86.8% | 106% | 107% | 107% | 0 | 0 | 0 | 0 | 0 | > 10 µM | > 10 µM | > 10 µM | > 10 µM | > 10 µM |
| CCNC(=O)N1CCN(CCCC(c2ccc(F)cc2)c2ccc(F)cc2)CC1 [amperozide] | 98.7% | 98.6% | 100% | 99.2% | 94.1% | 98.5% | 102% | 91.9% | 103% | 93.7% | 96.5% | 96.6% | 85.6% | 94.1% | 81.4% | 97.5% | 103% | 94.4% | 100% | 95.3% | 97.6% | 103% | 95.7% | 106% | 94.4% | 0 | 0 | 1 | 0 | 0 | > 10 µM | > 10 µM | > 10 µM | > 10 µM | > 10 µM |
